Source: publication PMC4629899, “Structural and Enzymatic Characterization of a Nucleoside Diphosphate Sugar Hydrolase from Bdellovibrio bacteriovorus” (PLoS ONE, 2015)

What was measured:
Bd-NDPSase (Bd3179) [1] = molecular target: T1, Bd-NDPSase (Bd3179) (Bdellovibrio bacteriovorus, UniProt Q6MIH8, E140Q); experiment: X-ray crystal structure, […] A (soak); assay type: binding; conditions: crystals soaked in 5 mM ADPR for 2 days; catalytically inactive mutant; active site, no metal added
T1 construct: gene nudF; gene cloned from HD100 chromosomal DNA into pET24a, expressed in E. coli BL21 (DE3); conventional purification, no tag mentioned; homodimer, residues numbered to 182

Bd-NDPSase (Bd3179) [2] = molecular target: T1, Bd-NDPSase (Bd3179); experiment: X-ray crystal structure, […] A; assay type: binding; conditions: from crystals with 5 mM UDP-glucose (co-crystallization per methods, soak per results); active site, shifted toward phosphate position
[3] = substrate: Nc1nc2c(ncn2[C@@H]2O[C@H](COP(=O)(O)OP(=O)(O)O[C@H]3O[C@H](CO)[C@@H](O)[C@H](O)[C@@H]3O)[C@@H](O)[C@H]2O)c(=O)[nH]1; experiment: phosphate release assay (Ames, coupled to calf intestinal phosphatase); assay type: biochemical, Bdellovibrio bacteriovorus; conditions: 5 mM MgCl2, 50 mM Tris-HCl pH 8.6, 1 mM EDTA
Excerpt: phosphate release assay (Ames, coupled to calf intestinal phosphatase) on Bd-[…]

T1 sequence (Q6MIH8 entry or part of it E140Q): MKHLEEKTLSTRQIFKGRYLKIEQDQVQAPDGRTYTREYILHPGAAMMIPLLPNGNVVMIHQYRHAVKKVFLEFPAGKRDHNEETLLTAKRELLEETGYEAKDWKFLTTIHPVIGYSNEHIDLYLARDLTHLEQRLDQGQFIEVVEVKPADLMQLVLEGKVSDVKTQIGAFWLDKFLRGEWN

`Nc1ncnc2c1ncn2[C@@H]1O[C@H](COP(=O)(O)OP(=O)(O)OC[C@H]2OC(O)[C@H](O)[C@@H]2O)[C@@H](O)[C@H]1O` (stereo partly shown) [ADPR, ADP-ribose] was tested, and the “X-ray crystal structure, 2.06 A (soak)” value (Bd-NDPSase (Bd3179) [1]) was “E140Q Bd-NDPSase in complex with ADP-ribose (PDB ID 5C7T)”.

`OC[C@H]1OC(O)[C@H](O)[C@@H](O)[C@@H]1O` (stereo partly shown) [glucose] was tested, and the “X-ray crystal structure, 1.80 A” value (Bd-NDPSase (Bd3179) [2]) was “E140Q Bd-NDPSase in complex with glucose (PDB ID 5C8L)”.

B1: Bd-NDPSase (Bd3179) (Bdellovibrio bacteriovorus HD100) (protein)
chain: MKHLEEKTLSTRQIFKGRYLKIEQDQVQAPDGRTYTREYILHPGAAMMIPLLPNGNVVMIHQYRHAVKKVFLEFPAGKRDHNEETLLTAKRELLEETGYEAKDWKFLTTIHPVIGYSNEHIDLYLARDLTHLEQRLDQGEFIEVVEVKPADLMQLVLEGKVSDVKTQIGAFWLDKFLRGEWN
notes: gene cloned from HD100 chromosomal DNA into pET24a, expressed in E. coli BL21 (DE3); conventional purification, no tag mentioned; homodimer, residues numbered to 182
Molecule B1 has a Km [3] of 300 µM and a kcat [3] of 5200 s⁻¹.
